Assay [1] relates to cellular pERK in ASPC-1 (KRAS G12D) cells. The assay is described as follows: Cell based pERK assay, ASPC-1. The following applies: Homo sapiens, ASPC1; ASPC-1 (KRAS G12D), 2 hours incubation, HTRF phospho-ERK1/2; read-out: AsPC1 pERK EC50. The method, then:
(§1) Compounds were tested in a 384-well assay format for their ability to inhibit cellular pERK in Kuramochi (WT KRAS), MIA-PaCa-2 (KRAS-G12C), ASPC-1 (KRAS G12D), and NCI-H441 (KRAS-G12V) cell-lines. Compounds were serially diluted (1:3) in DMSO. On day −1, 80 μL of cells were plated per well in the 384 well tissue-culture plates (Greiner: Cat #781080) to seed 5000 cells per wells of AsPC-1 or 7500 cells of MIA-PaCa-2, NCI-H441, and Kuramochi cell lines in RPMI (Corning: Cat #10-040-CM) with 10% fetal bovine serum (FBS) (HyClone: Cat #SH30071-03) and 1× penicillin-streptomycin-glutamate (PSG) (Corning: Cat #30-009-CI) for […] and Kuramochi cell lines and DMEM (Corning: Cat #15-018-CM) with 10% FBS and 1×PSG for MIA-PaCa-2 cell line. The plates were then incubated overnight at 37° C. and 5% CO2. On day 0, 400 nL of compound/well was added into the cell plates and mixed 5 times by pipetting using a Beckmann Biomek FX. The cell plates were then incubated for 2 hours at 37° C. and 5% CO2. HTRF Advanced Phospho-ERK1/2 (THR202/TYR204) Detection Kits (PerkinElmer: Cat #64AERPEG) were used to prepare the lysis and detection solution according to manufacturer protocol. Following the 2 hour incubation, 70 μL of medium was aspirated from the plates and 10 uL of lysis and detection solution was added to the plates using a Biotek EL406 washer and dispenser. Plates were sealed and stored overnight at room temperature. HTRF ratio (665 nm/615 nm) was read by Envision multimode reader (PerkinElmer) the next day. The TR-FRET ratios were normalized to a positive (saturating concentration of known inhibitor) and negative (DMSO) control and plotted against the log of compound concentration.

In assay [2] the test system is cellular pERK in Kuramochi (WT KRAS) cells. The assay is described as follows: Cell based pERK assay, Kuramochi. The following applies: Kuramochi (WT KRAS), 2 hours incubation, HTRF phospho-ERK1/2; read-out: Kuramochi pERK EC50. On the procedure: as §1
A general note: Time-resolved FRET reads energy transfer from a long-lived donor to a nearby acceptor.

Assay [3] concerns cellular pERK in NCI-H441 (KRAS-G12V) cells. The assay is described as follows: Cell based pERK assay, NCI-H441. The following applies: Homo sapiens; NCI-H441 (KRAS-G12V), 2 hours incubation, HTRF phospho-ERK1/2; read-out: H441 PERK EC50. On the procedure: as §1
Assay [4] relates to cellular pERK in MIA-PaCa-2 (KRAS-G12C) cells. The assay is described as follows: Cell based pERK assay, MIA-PaCa-2. To be noted: Homo sapiens; MIA-PaCa-2 (KRAS-G12C), 2 hours incubation, HTRF phospho-ERK1/2; read-out: MIAPaCa2 pERK EC50. The method, then: as §1

Bounds are passed on as bounds.

On to `C#Cc1c(F)ccc2cc(O)cc(-c3nc4c5c(nc(OC[C@@]67CCCN6C[C@H](F)C7)nc5c3F)N3C[C@@]5(F)CC[C@H](N5)[C@H]3C=C4C)c12` [Example 4-15, 4-((5aR,6S,9S)-1,9-difluoro-12-(((2R,7aS)-2-fluorotetrahydro-1H-pyrrolizin-7a(5H)-yl)methoxy)-4-methyl-5a,6,7,8,9,10-hexahydro-3,10a,11,13,14-pentaaza-6,9-methanonaphtho[1,8-ab]heptalen-2-yl)-5-ethynyl-6-fluoronaphthalen-2-ol], for which the EC50 (usually the concentration that produces a half-maximal response) in assay [1] turned out to be 98.3 nM; in assay [2], 4.42 nM; in assay [3] it was 21.8 nM; in assay [4] it was 4.05 nM.
Turning to `C#Cc1c(F)ccc2cc(O)cc(-c3nc4c5c(nc(OC[C@@]67CCCN6C[C@H](F)C7)nc5c3F)N3C[C@@]5(F)CC[C@](F)(N5)[C@H]3CO4)c12` [Example 4-16, 5-ethynyl-6-fluoro-4-((5aR,6R,9S)-1,6,9-trifluoro-12-(((2R,7aS)-2-fluorotetrahydro-1H-pyrrolizin-7a(5H)-yl)methoxy)-5a,6,7,8,9,10-hexahydro-5H-4-oxa-3,10a,11,13,14-pentaaza-6,9-methanonaphtho[1,8-ab]heptalen-2-yl)naphthalen-2-ol], the EC50 in assay [1] is more than 1000 nM; in assay [2], 147 nM; in assay [3], more than 770 nM; in assay [4], 157 nM.
Consider `C#Cc1c(F)ccc2cc(N)cc(-c3nc4c5c(nc(OC[C@@]67CCCN6C[C@H](F)C7)nc5c3F)N3C[C@@]5(F)CC[C@](F)(N5)[C@@H]3CC4)c12` [Example 4-19, 5-ethynyl-6-fluoro-4-((5aS,6R,9S)-1,6,9-trifluoro-12-(((2R,7aS)-2-fluorotetrahydro-1H-pyrrolizin-7a(5H)-yl)methoxy)-4,5,5a,6,7,8,9,10-octahydro-3,10a,11,13,14-pentaaza-6,9-methanonaphtho[1,8-ab]heptalen-2-yl)naphthalen-2-amine], for which the EC50 was 5.17 nM in assay [1], 0.92 nM in assay [2], 1.08 nM in assay [3] and 0.235 nM in assay [4].
Consider `C#Cc1c(F)ccc2cc(O)cc(-c3nc4c5c(nc(OC[C@@]67CCCN6C[C@H](F)C7)nc5c3F)N3C[C@@]5(F)CC[C@](F)(N5)[C@@H]3CC4)c12` [Example 4-20, 5-ethynyl-6-fluoro-4-((5aS,6R,9S)-1,6,9-trifluoro-12-(((2R,7aS)-2-fluorotetrahydro-1H-pyrrolizin-7a(5H)-yl)methoxy)-4,5,5a,6,7,8,9,10-octahydro-3,10a,11,13,14-pentaaza-6,9-methanonaphtho[1,8-ab]heptalen-2-yl)naphthalen-2-ol], for which the EC50 in assay [1] came to 0.735 nM; in assay [2], 1.8 nM; in assay [3], 0.616 nM; in assay [4], 0.081 nM.
For `Oc1cc(-c2nc3c4c(nc(OCC56CCCN5CCC6)nc4c2F)N2C[C@@]4(F)CC[C@](F)(N4)[C@H]2CCC3)c2c(Cl)c(F)ccc2c1` [Example 4-27, 5-chloro-6-fluoro-4-((6aR,7R,10S)-1,7,10-trifluoro-13-((tetrahydro-1H-pyrrolizin-7a(5H)-yl)methoxy)-5,6,6a,7,8,9,10,11-octahydro-4H-3,11a,12,14,15-pentaaza-7,10-methanocyclohepta[4,5]cycloocta[1,2,3-de]naphthalen-2-yl)naphthalen-2-ol], the EC50 was 64.3 nM in assay [1], 2.58 nM in assay [2], 13.8 nM in assay [3] and 3.03 nM in assay [4].
Taken in the same sequence, the figures for `C#Cc1c(F)ccc2cc(N)cc(-c3nc4c5c(nc(OCC67CCCN6CCC7)nc5c3F)N3C[C@@]5(F)CC[C@](F)(N5)[C@@H]3CC4)c12` [Example 4-34, 5-ethynyl-6-fluoro-4-((5aS,6R,9S)-1,6,9-trifluoro-12-((tetrahydro-1H-pyrrolizin-7a(5H)-yl)methoxy)-4,5,5a,6,7,8,9,10-octahydro-3,10a,11,13,14-pentaaza-6,9-methanonaphtho[1,8-ab]heptalen-2-yl)naphthalen-2-amine] were 20.9 nM, 3.34 nM, 2.75 nM and 0.511 nM.
On the same counts, the results for `C#Cc1c(F)c(F)cc2cc(N)cc(-c3nc4c5c(nc(OCC67CCCN6CCC7)nc5c3F)N3C[C@@]5(F)CC[C@](F)(N5)[C@@H]3CC4)c12` [Example 4-35, 5-ethynyl-6,7-difluoro-4-((5aS,6R,9S)-1,6,9-trifluoro-12-((tetrahydro-1H-pyrrolizin-7a(5H)-yl)methoxy)-4,5,5a,6,7,8,9,10-octahydro-3,10a,11,13,14-pentaaza-6,9-methanonaphtho[1,8-ab]heptalen-2-yl)naphthalen-2-amine] are 33.7 nM, 3.69 nM, 5.32 nM and 0.787 nM.
For `C#Cc1c(F)ccc2cc(N)cc(-c3nc4c5c(nc(OC[C@@]67CCCN6CC(=C)C7)nc5c3F)N3C[C@@]5(F)CC[C@](F)(N5)[C@H]3CCC4)c12` [Example 4-38, 5-ethynyl-6-fluoro-4-((6aR,7R,10S)-1,7,10-trifluoro-13-(((S)-2-methylenetetrahydro-1H-pyrrolizin-7a(5H)-yl)methoxy)-5,6,6a,7,8,9,10,11-octahydro-4H-3,11a,12,14,15-pentaaza-7,10-methanocyclohepta[4,5]cycloocta[1,2,3-de]naphthalen-2-yl)naphthalen-2-amine], the EC50 was found to be 2.2 nM in assay [1], 2.69 nM in assay [2], 1.01 nM in assay [3] and 0.134 nM in assay [4].
With `C#Cc1c(F)ccc2cc(N)cc(-c3nc4c5c(nc(OC[C@@]67CCCN6CC(=C)C7)nc5c3F)N3C[C@@]5(F)CC[C@](F)(N5)[C@@H]3[C@@H](C)C4)c12` [Example 4-40, 5-ethynyl-6-fluoro-4-((5S,5aS,6R,9S)-1,6,9-trifluoro-5-methyl-12-(((S)-2-methylenetetrahydro-1H-pyrrolizin-7a(5H)-yl)methoxy)-4,5,5a,6,7,8,9,10-octahydro-3,10a,11,13,14-pentaaza-6,9-methanonaphtho[1,8-ab]heptalen-2-yl)naphthalen-2-amine], the EC50 in assay [1] is 0.71 nM; in assay [2], 1.65 nM; in assay [3], 0.38 nM; in assay [4], 0.067 nM.
On to `Nc1cc(-c2nc3c4c(nc(OCC56CCCN5CCC6)nc4c2F)N2C[C@@]4(F)CC[C@](F)(N4)[C@H]2CCC3)c2c(F)c(F)ccc2c1` [Example 5-4, 5,6-difluoro-4-[(4S,7R,8R)-4,7,15-trifluoro-18-(1,2,3,5,6,7-hexahydropyrrolizin-8-ylmethoxy)-2,13,17,19,21-pentazapentacyclo[10.7.1.14,7.02,8.016,20]henicosa-1(19),12(20),13,15,17-pentaen-14-yl]naphthalen-2-amine], for which the EC50 in assay [1] was determined as 416 nM; in assay [2], 5.01 nM; in assay [3] it was 104 nM; in assay [4], 28.7 nM.
For the compound `CCc1c(F)ccc2cc(O)cc(-c3nc4c5c(nc(OCC67CCCN6CCC7)nc5c3F)N3C[C@@]5(F)CC[C@](F)(N5)[C@H]3CCC4)c12` [Example 6-1, 5-ethyl-6-fluoro-4-((6aR,7R,10S)-1,7,10-trifluoro-13-((tetrahydro-1H-pyrrolizin-7a(5H)-yl)methoxy)-5,6,6a,7,8,9,10,11-octahydro-4H-3,11a,12,14,15-pentaaza-7,10-methanocyclohepta[4,5]cycloocta[1,2,3-de]naphthalen-2-yl)naphthalen-2-ol], the EC50 amounted to 31.8 nM in assay [1], 3.55 nM in assay [2], 19.4 nM in assay [3] and 1.52 nM in assay [4].

The values above are taken from patent publication US20250042922A1, “KRAS MODULATING COMPOUNDS” (priority 2023, published 2025).
